Results as given in patent US20040101834A1, “Method of and kit for assessing responsiveness of cancer patients to antifolate chemotherapy” (priority 2001, published 2004).
Positions count from the first letter of the chain named. Numbers in names are those of the source. Read-outs that look alike come from different tables or passages of the source. Marks after values point to notes of the source that are not given here.

Tests used:
[1] = system: parental human CEM leukemia cells (CEM/WT); experiment: Antifolate growth inhibition, 72 h drug exposure; format: cell-based
GW70/LF cells = experiment: Antifolate growth inhibition, 72 h drug exposure; format: cell-based
Experimental: The GW70 subline was established by stepwise exposure of parental CEM cells to gradually increasing concentrations of the potent thymidylate synthase inhibitor, GW1843U89 in normal growth medium; this selection was initiated at 1.5 nM and terminated at 70 nM GW1843U89, the cells were therefore termed GW70. GW70/LF cells were established by gradual deprivation of folic acid from the growth medium; this was terminated at a concentration of 5 nM folic acid.

[2] = system: GW70 cells (GW1843U89-resistant CEM subline); experiment: Antifolate growth inhibition, 72 h drug exposure; format: cell-based, human; settings: for sensitivity relative to parental CEM cells: lipid-soluble antifolates
RFC in GW70 cells = biological target: T1, RFC in GW70 cells (Homo sapiens, UniProt P41440, E45K/H27R/S46I/V29L); experiment: [3H]MTX and [3H]folic acid transport; format: cell-based; settings: GW70 vs parental CEM
T1 construct: endogenous in cells; host or cells: CEM-GW70 (GW1843U89-resistant CCRF-CEM subline)
T1 sequence (P41440 1-591 H27R/V29L/E45K/S46I): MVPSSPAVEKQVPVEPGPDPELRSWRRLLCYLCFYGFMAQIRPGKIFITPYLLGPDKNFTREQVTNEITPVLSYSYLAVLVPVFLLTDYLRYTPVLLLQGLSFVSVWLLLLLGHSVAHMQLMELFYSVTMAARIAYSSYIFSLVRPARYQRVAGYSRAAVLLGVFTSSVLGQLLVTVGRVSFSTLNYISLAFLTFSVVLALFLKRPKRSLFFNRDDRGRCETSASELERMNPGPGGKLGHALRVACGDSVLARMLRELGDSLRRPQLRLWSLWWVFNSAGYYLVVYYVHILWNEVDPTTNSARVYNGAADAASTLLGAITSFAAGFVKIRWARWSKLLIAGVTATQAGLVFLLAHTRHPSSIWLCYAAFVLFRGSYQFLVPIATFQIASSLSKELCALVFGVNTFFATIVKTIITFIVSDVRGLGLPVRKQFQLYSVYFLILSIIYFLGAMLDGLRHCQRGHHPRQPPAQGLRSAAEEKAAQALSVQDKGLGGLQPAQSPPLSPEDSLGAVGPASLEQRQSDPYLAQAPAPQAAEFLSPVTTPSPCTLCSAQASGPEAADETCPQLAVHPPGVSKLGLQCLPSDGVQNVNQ
Experimental: At selected transport time intervals, ranging from 0.5-30 minutes, uptake was terminated by the addition of 10 ml ice-cold HBSS, after which centrifugation and cell wash with another 10 ml ice-cold HBSS were performed. The final cell pellet was then counted for radioactivity.

human RFC = biological target: T2, human RFC (Homo sapiens, UniProt P41440); settings: Westerhof et al., 1995; read-out: Ki as transport substrate; cited from earlier work
T2 sequence (P41440 1-591): T1 sequence (P41440 1-591 H27R/V29L/E45K/S46I) with R27H, L29V, K45E, I46S

TS = TS (Mus musculus, UniProt P07607); settings: Jackman, 1991; cited from earlier work
[3] = system: GW70 cells (GW1843U89-resistant CEM subline); experiment: Folate growth requirement; format: cell-based, human; settings: Homo sapiens, read-out: EC50, concentration necessary to support 50% of maximal growth; Table 6; column GW (GW70)
Text: (§1) Table 6 below summarizes the antifolate growth inhibition and folate growth requirement in parental human CEM leukemia cells and their GW70 subline.

[4] = system: mouse MTX^rA leukemia transfectant harboring Glu45Lys RFC cDNA; experiment: Folate growth requirement in RFC transfectants; format: cell-based
Experimental: (§2) Thereafter, cells were washed twice with serum-free folic acid-free medium, in order to eliminate GAT. […] Thereafter, cells were exposed continuously to various concentrations of leucovorin or folic acid for 72 hours, following which cell numbers were determined by hemocytometer count of viable cells, using trypan blue exclusion.

[5] = system: parental human CEM leukemia cells (CEM/WT); experiment: Folate growth requirement; format: cell-based; settings: read-out: EC50, concentration necessary to support 50% of maximal growth, Table 6
Text: as §1

[6] = system: mouse MTX^rA leukemia transfectant harboring Arg27/His56 RFC cDNA; experiment: Folate growth requirement in RFC transfectants; format: cell-based
Experimental: as §2

[7] = system: mouse MTX^rA leukemia transfectant harboring native RFC (Arg27) cDNA; experiment: Folate growth requirement in RFC transfectants; format: cell-based
Experimental: as §2

[8] = system: mouse MTX^rA leukemia transfectant harboring His27 RFC cDNA; experiment: Folate growth requirement in RFC transfectants; format: cell-based
Experimental: as §2

[9] = system: mouse MTX^rA leukemia transfectant harboring His27/His56 RFC cDNA; experiment: Folate growth requirement in RFC transfectants; format: cell-based
Experimental: as §2

[10] = substrate: CN(Cc1cnc2nc(N)nc(N)c2n1)c1ccc(C(=O)N[C@@H](CCC(=O)O)C(=O)O)cc1; experiment: cells, lysate or membranes; settings: other: CEM/GW70; influx, initial (3 min) uptake rates, Lineweaver-Burk; pH 7.4; 37.0 °C
[11] = substrate: Nc1nc2ncc(CNc3ccc(C(=O)N[C@@H](CCC(=O)O)C(=O)O)cc3)nc2c(=O)[nH]1; experiment: cells, lysate or membranes; format: cell-based, human; settings: influx, initial (3 min) uptake rates, Lineweaver-Burk, pH 7.4, 37.0 °C
[12] = substrate: CN(Cc1cnc2nc(N)nc(N)c2n1)c1ccc(C(=O)N[C@@H](CCC(=O)O)C(=O)O)cc1; experiment: cells, lysate or membranes; format: cell-based, human; settings: other: CEM/GW70-LF; influx, initial (3 min) uptake rates, Lineweaver-Burk; pH 7.4; 37.0 °C
[13] = Homo sapiens, 72 h, Table 10, GW70/LF
[14] = Homo sapiens, 72 h, Table 10, GW70/LF grown in the presence of 2.3 µM folic acid
[15] = Table 10, CEM/WT, 72 h drug exposure, read-out: IC50
[16] = Table 10, GW70/LF, read-out: IC50
[17] = Table 10, GW70, 72 h drug exposure, read-out: IC50
[18] = Homo sapiens, Table 10, CEM/WT, 72 h drug exposure, read-out: IC50
[19] = Homo sapiens, 72 h, read-out: IC50, antifolate concentration that inhibits cell growth by 50%
[20] = Mus musculus, read-out: EC50, concentration necessary to support 50% of maximal growth of control cells

TS, sequence (P07607 whole entry): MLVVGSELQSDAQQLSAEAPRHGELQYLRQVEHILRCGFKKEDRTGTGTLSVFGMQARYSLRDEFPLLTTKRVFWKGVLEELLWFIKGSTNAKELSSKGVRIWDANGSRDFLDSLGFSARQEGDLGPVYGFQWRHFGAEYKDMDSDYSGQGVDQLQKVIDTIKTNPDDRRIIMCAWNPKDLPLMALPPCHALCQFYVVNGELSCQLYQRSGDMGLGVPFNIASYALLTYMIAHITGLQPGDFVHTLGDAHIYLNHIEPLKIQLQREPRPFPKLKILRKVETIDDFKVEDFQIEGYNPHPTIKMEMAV

C#CCN(Cc1cc2c(=O)[nH]c(C)nc2cc1C)c1ccc(C(=O)N[C@@H](CCc2nnn[nH]2)C(=O)O)c(F)c1 [ZD9331]
IC50 ([1]; Homo sapiens, 72 h): 16 ± 1 nM
IC50 (GW70/LF cells; [13]): 25 ± 6 nM
IC50 (GW70/LF cells; [14]): 12 ± 4 nM
IC50 ([2]; Homo sapiens, 72 h): 479 ± 67 nM

Nc1nc(N)c2nc(CNc3ccc(C(=O)N[C@@H](CCCNC(=O)c4ccccc4C(=O)O)C(=O)O)cc3)cnc2n1 [PT523]
IC50 [1, 15]: 1.1 ± 0.3 nM
IC50 (GW70/LF cells; [16]): 1.4 ± 0.1 nM
IC50 [2, 17]: 81 ± 16 nM

COc1cc(NCc2ccc3nc(N)nc(N)c3c2C)cc(OC)c1OC [TMQ]
IC50 [1, 18]: 7.5 ± 2.1 nM
IC50 (GW70/LF cells; [13]): 1.1 ± 0.2 nM
sensitivity relative to parental CEM cells ([2]; GW70, listed as trimetraxate): hypersensitive
sensitivity relative to parental CEM cells ([2]; GW70, listed as trimetrexate): collaterally more sensitive than parental CEM cells
IC50 ([2]; Homo sapiens, 72 h): 7.2 ± 1.7 nM

Cc1ccc2nc(N)[nH]c(=O)c2c1Sc1ccncc1 [AG337]
IC50 [1, 15]: 1800 ± 340 nM
IC50 (GW70/LF cells; Table 10, GW70/LF grown in the presence of 2.3 µM folic acid, read-out: IC50): 2220 ± 264 nM
IC50 (GW70/LF cells; [16]): 920 ± 430 nM
sensitivity relative to parental CEM cells ([2]; GW70): collaterally more sensitive than parental CEM cells
IC50 [2, 17]: 974 ± 241 nM

Cc1nc2ccc3ccc(CNc4ccc5c(c4)CN([C@@H](CCC(=O)O)C(=O)O)C5=O)cc3c2c(=O)[nH]1 [GW1843]
fold decreased affinity of RFC (RFC in GW70 cells): 6 fold
IC50 [1, 19]: 1.8 ± 0.22 nM
IC50 [1, 18]: 2.4 ± 0.4 nM
IC50 (GW70/LF cells; [13]): 2.5 ± 0.7 nM
IC50 (GW70/LF cells; [14]): 7.5 ± 1.5 nM
Ki (human RFC): 800 nM
fold resistance / cross-resistance ([2]; GW70 vs parental CEM cells): 100 fold
IC50 ([2]; Homo sapiens, 72 h): 123 ± 48 nM
IC50 [2, 19]: 172 ± 34.5 nM

Nc1nc2c(c(=O)[nH]1)CC(CCc1ccc(C(=O)N[C@@H](CCC(=O)O)C(=O)O)cc1)CN2 (some centres unmarked) [DDATHF, 5,10-dideazatetrahydrofolic acid]
IC50 ([1]; Homo sapiens, 72 h): 11 ± 4 nM
IC50 (GW70/LF cells; [13]): 8.2 ± 1.7 nM
IC50 (GW70/LF cells; [14]): > 10000 nM
IC50 ([2]; Homo sapiens, 72 h): 360 ± 106 nM

Nc1nc2[nH]cc(CCc3ccc(C(=O)N[C@@H](CCC(=O)O)C(=O)O)cc3)c2c(=O)[nH]1 [MTA]
IC50 [1, 18]: 23 ± 7 nM
IC50 (GW70/LF cells; [13]): 4.6 ± 0.6 nM
IC50 (GW70/LF cells; [14]): 221 ± 47 nM
IC50 ([2]; Homo sapiens, 72 h): 351 ± 73 nM

Cc1nc2ccc(CN(C)c3ccc(C(=O)N[C@@H](CCC(=O)O)C(=O)O)s3)cc2c(=O)[nH]1 [ZD1694]
IC50 [1, 18]: 3.5 ± 0.6 nM
Ki (TS): 60 nM
IC50 (GW70/LF cells; Homo sapiens, 72 h, Table 10, GW70/LF grown in the presence of 2.3 µM folic acid, read-out: IC50): 389 ± 55 nM
IC50 (GW70/LF cells; Homo sapiens, 72 h, Table 10, GW70/LF, read-out: IC50): 3.2 ± 0.5 nM
IC50 ([2]; Homo sapiens, 72 h): 515 ± 224 nM

CN1c2c(nc(N)[nH]c2=O)NCC1CNc1ccc(C(=O)N[C@@H](CCC(=O)O)C(=O)O)cc1 (some centres unmarked) [5-methyl-THF, 5-methyltetrahydrofolate]
fold increased affinity of RFC (RFC in GW70 cells): 3 fold

Nc1nc2c(c(=O)[nH]1)N(C=O)C(CNc1ccc(C(=O)N[C@@H](CCC(=O)O)C(=O)O)cc1)CN2 (some centres unmarked) [Leucovorin, 5-formyltetrahydrofolate]
EC50 [3]: 2.4 ± 1.1 nM
MTX IC50/leucovorin EC50 ratio ([4]; Glu45Lys transfectant, in parentheses): (1.17)
EC50 [4, 20]: 0.65 ± 0.15 nM
EC50 [5]: 0.51 ± 0.08 nM
EC50 [6, 20]: 0.7 ± 0.14 nM
MTX IC50/leucovorin EC50 ratio ([6]; in parentheses): (1.32)
MTX IC50/leucovorin EC50 ratio ([7]; Arg27 transfectant, in parentheses): (1)^c
EC50 ([7]; Mus musculus, read-out: EC50, concentration necessary to support 50% of maximal growth of control cells, Arg27 (native RFC) transfectant): 0.76 ± 0.03 nM
EC50 [8, 20]: 0.78 ± 0.09 nM
MTX IC50/leucovorin EC50 ratio ([8]; in parentheses): (0.97)
EC50 [9, 20]: 0.42 ± 0.1 nM
MTX IC50/leucovorin EC50 ratio ([9]; in parentheses): (1.81)

B1: RFC in GW70 cells (Homo sapiens; E45K/H27R/S46I/V29L) (protein)
chain: T1 sequence (P41440 1-591 H27R/V29L/E45K/S46I)
notes: endogenous in cells; host or cells: CEM-GW70 (GW1843U89-resistant CCRF-CEM subline)
Km [10]: 16 ± 3.9 µM
Km ([11]; other: CEM/GW70): 16.5 ± 3.4 µM

B2: RFC in GW70/LF cells (Homo sapiens; D88H/E45K/H27R/S46I/V29L) (protein)
chain: T1 sequence (P41440 1-591 H27R/V29L/E45K/S46I) with D88H
notes: a prominent overproduction of the native ˜80 kDa and truncated 43 kDa RFC proteins; endogenous in cells; host or cells: GW70/LF (GW70 cells adapted to low folate; 5-fold RFC gene amplification)
Km ([11]; other: CEM/GW70-LF): 15.5 ± 2.5 µM
Km [12]: 17.1 ± 1.2 µM
